The target in one assay is T1, 5-HT7 (Homo sapiens, UniProt P34969).
T1 construct: purchased Euroscreen/BioSignal Packard Inc
Kind of assay: Radioligand binding, 5-HT7 ([3H]LSD). Particulars: Table 4; [3H]LSD 3 nM; read-out: Binding affinity, IC50 (nM) 5-HT7.

The target of assay [1] is T2, Human serotonin 5-HT6 receptor (Homo sapiens, UniProt P50406).
T2 construct: made in house; host or cells: insect Sf21 cells (baculovirus vector BacPAK8)
Kind of assay: [3H]LSD binding assay on cloned 5-HT6 receptor membranes.

The target in a further assay is T3, hD3 (Homo sapiens, UniProt P35462).
T3 construct: purchased BioSignal Packard Inc., Montreal, Canada
Kind of assay: Radioligand binding, dopamine D3 ([3H]spiperone). Particulars: Table 4; [3H]spiperone 1 nM; read-out: Binding affinity, IC50 (nM) D3. How it is done: (§1) 2-2: Binding assays of Dopamine Receptor Family
(§2) The radioligands used were [^3H] spiperone (for hD2L and hD3 receptors, 1 nM) and [^3H] YM-09151-2 (for hD4.2 receptor, 0.06 nM). Radioligand bindings were performed by the protocols provided by the supplier of receptor membranes (BioSignal Packard Inc., Montreal, Canada). Briefly, the buffer used in D2 or D3 receptor binding assay was 50 mM Tris-HCl (pH 7.4), 10 mM MgCl2, 1 mM EDTA, or 50 mM Tris-HCl (pH 7.4), 5 mM MgCl2, 5 mM EDTA, 5 mM KCl, 1.5 mM CaCl2, 120 mM NaCl, respectively. In [^3H] YM-09151-2 receptor binding assays, the buffer containing 50 mM Tris-HCl (pH 7.4), 5 mM MgCl2, 5 mM EDTA, 5 mM KCl and 1.5 mM CaCl2 was used. […] Competition binding studies were carried out with 7-8 concentrations of the test compound run in duplicate tubes, and isotherms from three assays were calculated by computerized nonlinear regression analysis (GraphPad Prism Program, San Diego, […]) to yield median inhibitory concentration (IC50) values.

Another assay has as its target T4, hD4.2 receptor (Homo sapiens, UniProt P21917, DEL265-296).
T4 construct: purchased BioSignal Packard Inc., Montreal, Canada
T4 sequence (P21917 with tags, fused parts or gaps DEL265-296): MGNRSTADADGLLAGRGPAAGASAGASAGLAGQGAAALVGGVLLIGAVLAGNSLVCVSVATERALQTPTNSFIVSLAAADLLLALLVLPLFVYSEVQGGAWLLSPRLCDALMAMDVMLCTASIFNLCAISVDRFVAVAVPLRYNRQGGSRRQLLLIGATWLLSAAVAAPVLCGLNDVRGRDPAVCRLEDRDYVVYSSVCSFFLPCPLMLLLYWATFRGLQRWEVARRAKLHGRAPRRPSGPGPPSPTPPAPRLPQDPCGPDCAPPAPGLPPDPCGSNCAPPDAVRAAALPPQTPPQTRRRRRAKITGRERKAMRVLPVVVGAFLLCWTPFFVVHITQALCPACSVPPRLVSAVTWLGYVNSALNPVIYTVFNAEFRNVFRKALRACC
Kind of assay: Radioligand binding, dopamine D4 ([3H]YM-09151-2). Particulars: Table 4; [3H]YM-09151-2 0.06 nM; read-out: Binding affinity, IC50 (nM) D4. How it is done:
as §1, §2

A further assay has as its target T5, 5-HT1a (Homo sapiens, UniProt P08908).
T5 construct: purchased Euroscreen/BioSignal Packard Inc
T5 sequence (P08908 1-422): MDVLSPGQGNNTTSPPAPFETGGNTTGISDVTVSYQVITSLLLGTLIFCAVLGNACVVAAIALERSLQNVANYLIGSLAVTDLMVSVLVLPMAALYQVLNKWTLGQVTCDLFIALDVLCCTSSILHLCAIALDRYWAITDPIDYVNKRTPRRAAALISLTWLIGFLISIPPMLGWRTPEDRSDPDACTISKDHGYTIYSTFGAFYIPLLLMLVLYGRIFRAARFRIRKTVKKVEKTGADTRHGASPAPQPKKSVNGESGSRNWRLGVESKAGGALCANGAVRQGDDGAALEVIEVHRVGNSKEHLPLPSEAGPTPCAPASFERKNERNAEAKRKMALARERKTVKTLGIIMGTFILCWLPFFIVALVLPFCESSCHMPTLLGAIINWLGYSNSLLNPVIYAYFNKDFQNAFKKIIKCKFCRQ
Kind of assay: Radioligand binding, 5-HT1a ([3H]8-OH-DPAT). Conditions: Table 4; [3H]8-OH-DPAT 0.5 nM; read-out: Binding affinity, IC50 (nM) 5-HT1a. Here is the method: Radioligand bindings were performed according to the test method provided by the supplier of receptor membrane (Euroscreen/BioSignal Packard Inc.). The detailed assay conditions and the results were shown in the following Table 3 and Table 4, respectively.

A further assay concerns the target T6, 5-HT2c (Homo sapiens, UniProt P28335).
T6 construct: purchased Euroscreen/BioSignal Packard Inc
T6 sequence (P28335 33-458): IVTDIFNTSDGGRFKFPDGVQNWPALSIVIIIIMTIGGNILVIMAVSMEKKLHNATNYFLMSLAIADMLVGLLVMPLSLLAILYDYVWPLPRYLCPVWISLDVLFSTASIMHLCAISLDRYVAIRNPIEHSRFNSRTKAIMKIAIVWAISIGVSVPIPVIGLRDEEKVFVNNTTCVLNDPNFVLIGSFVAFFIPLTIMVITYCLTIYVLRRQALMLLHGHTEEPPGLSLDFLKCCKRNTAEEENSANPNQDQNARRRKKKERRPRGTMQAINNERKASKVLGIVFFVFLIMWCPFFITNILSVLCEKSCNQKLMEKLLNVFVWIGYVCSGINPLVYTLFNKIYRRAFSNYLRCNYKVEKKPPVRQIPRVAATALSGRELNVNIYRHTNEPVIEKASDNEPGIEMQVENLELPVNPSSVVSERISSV
Kind of assay: Radioligand binding, 5-HT2c ([3H]Mesulergine). Particulars: Table 4; [3H]Mesulergine 1 nM; read-out: Binding affinity, IC50 (nM) 5-HT2c.

A further assay deals with T7, 5-HT2a (Homo sapiens, UniProt P28223).
T7 construct: purchased Euroscreen/BioSignal Packard Inc
Kind of assay: Radioligand binding, 5-HT2a ([3H]Ketanserin). Conditions: Table 4; [3H]Ketanserin 1 nM; read-out: Binding affinity, IC50 (nM) 5-HT2a.

Another assay concerns the target D1 (Homo sapiens, UniProt P21728). Kind of assay: Radioligand binding, dopamine D1. Conditions: Table 4; read-out: Binding affinity, IC50 (nM) D1.
The next assay addresses T8, hD2L (Homo sapiens, UniProt P14416).
T8 construct: purchased BioSignal Packard Inc., Montreal, Canada
Kind of assay: Radioligand binding, dopamine D2 ([3H]spiperone). Conditions: Table 4; [3H]spiperone 1 nM; read-out: Binding affinity, IC50 (nM) D2. Here is the method:
as §1, §2

[2] abbreviates: Table 2, 1.87 nM [3H]LSD, 37 C, 60 min, read-out: IC50 (nM), binding affinity to the 5-HT6 receptor.
Setting [3] is: Table 4, read-out: Binding affinity, IC50 (nM) 5-HT6.

Read-outs that look alike come from different tables or passages of the source.

In general, IC50 refers to the midpoint of a concentration-inhibition curve.

D1, sequence (P21728 whole entry): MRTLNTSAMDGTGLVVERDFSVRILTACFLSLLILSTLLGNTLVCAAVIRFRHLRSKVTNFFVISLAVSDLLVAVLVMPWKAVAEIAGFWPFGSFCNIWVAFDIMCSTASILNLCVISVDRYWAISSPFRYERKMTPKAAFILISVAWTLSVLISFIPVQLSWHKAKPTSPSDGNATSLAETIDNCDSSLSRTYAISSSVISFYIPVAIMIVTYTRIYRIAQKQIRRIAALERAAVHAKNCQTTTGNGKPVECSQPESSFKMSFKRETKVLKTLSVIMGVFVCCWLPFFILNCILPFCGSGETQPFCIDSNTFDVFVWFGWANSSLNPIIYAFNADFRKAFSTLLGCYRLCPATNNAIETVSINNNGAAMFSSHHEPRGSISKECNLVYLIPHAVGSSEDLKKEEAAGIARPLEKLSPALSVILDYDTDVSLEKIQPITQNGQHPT
T8 sequence (P14416 whole entry): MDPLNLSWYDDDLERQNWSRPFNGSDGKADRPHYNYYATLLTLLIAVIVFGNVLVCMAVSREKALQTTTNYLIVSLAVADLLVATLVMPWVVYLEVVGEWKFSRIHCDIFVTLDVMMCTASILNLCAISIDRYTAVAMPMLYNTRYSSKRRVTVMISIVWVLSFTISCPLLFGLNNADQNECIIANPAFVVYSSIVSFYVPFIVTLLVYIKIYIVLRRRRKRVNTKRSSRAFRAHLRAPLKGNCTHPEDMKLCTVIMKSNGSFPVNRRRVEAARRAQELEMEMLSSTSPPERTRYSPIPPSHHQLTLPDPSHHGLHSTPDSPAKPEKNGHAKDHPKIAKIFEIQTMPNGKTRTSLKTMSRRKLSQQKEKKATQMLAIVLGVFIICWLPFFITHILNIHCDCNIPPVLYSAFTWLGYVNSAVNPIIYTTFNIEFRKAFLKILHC
T1 sequence (P34969 whole entry): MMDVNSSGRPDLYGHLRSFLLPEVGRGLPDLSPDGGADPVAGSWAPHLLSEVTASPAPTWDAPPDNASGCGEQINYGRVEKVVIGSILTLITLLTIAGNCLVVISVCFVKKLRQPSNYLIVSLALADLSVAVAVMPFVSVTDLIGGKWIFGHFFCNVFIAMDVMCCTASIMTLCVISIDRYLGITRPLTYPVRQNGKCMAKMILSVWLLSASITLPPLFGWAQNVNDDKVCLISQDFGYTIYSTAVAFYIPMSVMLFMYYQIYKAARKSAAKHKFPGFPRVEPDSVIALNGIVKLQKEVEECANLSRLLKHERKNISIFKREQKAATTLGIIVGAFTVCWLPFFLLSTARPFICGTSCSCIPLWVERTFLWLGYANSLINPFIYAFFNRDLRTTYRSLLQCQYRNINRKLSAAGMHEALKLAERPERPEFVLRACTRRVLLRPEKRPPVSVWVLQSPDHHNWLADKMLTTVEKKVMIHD
T2 sequence (P50406 whole entry): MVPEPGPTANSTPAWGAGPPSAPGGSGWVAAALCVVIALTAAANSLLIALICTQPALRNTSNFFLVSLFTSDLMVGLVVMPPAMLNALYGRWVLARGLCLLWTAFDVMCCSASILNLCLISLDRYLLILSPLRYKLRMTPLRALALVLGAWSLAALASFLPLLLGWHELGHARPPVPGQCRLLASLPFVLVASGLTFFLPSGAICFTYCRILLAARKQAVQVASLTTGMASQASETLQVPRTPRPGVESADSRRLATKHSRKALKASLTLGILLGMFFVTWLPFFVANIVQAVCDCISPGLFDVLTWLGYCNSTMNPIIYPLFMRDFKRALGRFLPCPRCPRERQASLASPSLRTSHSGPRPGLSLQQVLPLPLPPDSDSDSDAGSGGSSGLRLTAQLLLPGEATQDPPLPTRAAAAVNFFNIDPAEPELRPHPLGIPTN
T7 sequence (P28223 whole entry): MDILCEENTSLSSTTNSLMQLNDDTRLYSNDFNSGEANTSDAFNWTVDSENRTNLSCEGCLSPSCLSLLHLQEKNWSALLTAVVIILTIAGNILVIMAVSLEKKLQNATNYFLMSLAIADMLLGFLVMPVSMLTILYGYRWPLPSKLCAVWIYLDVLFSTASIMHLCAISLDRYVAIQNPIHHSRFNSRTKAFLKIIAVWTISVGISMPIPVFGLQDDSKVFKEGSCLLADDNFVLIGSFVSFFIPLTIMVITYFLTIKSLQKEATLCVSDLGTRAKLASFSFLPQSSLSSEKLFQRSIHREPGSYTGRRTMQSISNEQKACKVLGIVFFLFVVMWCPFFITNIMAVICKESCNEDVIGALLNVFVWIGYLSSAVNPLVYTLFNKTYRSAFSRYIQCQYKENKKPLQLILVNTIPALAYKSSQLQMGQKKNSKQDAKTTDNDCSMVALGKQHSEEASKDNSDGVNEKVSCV
T3 sequence (P35462 whole entry): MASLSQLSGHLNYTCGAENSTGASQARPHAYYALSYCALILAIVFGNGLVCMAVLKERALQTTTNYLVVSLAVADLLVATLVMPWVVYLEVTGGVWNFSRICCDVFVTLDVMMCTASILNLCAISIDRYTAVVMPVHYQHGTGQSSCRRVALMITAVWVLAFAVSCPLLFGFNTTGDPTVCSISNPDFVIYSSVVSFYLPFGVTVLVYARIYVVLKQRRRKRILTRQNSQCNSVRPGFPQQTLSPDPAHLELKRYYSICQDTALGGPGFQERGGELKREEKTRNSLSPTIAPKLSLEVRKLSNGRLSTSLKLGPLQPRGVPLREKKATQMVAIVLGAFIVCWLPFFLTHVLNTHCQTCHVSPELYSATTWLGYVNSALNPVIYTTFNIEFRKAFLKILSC

Take `CC1(c2ccc(O)cc2)C(=O)c2c(N3CCNCC3)cc(Cl)cc2N(Cc2ccc3ccccc3c2)C1=O` (stereo not drawn) [Example 40, 7-Chloro-3-(4-hydroxy-phenyl)-3-methyl-1-naphthalen-2-ylmethyl-5-piperazin-1-yl-1H-quinoline-2,4-dione]: the half-inhibitory concentration (IC50) is 7810 nM on 5-HT7; 55.7 nM in assay [1] (setting [2]); 18.2 nM in assay [1] (setting [3]); 9310 nM on hD3; 8980 nM at hD4.2 receptor; 7510 nM on 5-HT1a. The IC50 at 5-HT2c worked out at 8510 nM; at 5-HT2a it was 9480 nM; on D1, 7510 nM; on hD2L, 8540 nM.

In the case of `CCN(CC)c1ccc(C2(C)C(=O)c3c(N4CCNCC4)cc(Cl)cc3N(Cc3ccccc3)C2=O)cc1` (stereo not drawn) [Example 17, 1-Benzyl-7-chloro-3-(4-diethylamino-phenyl)-3-methyl-5-piperazin-1-yl-1H-quinoline-2,4-dione], the half-maximal inhibitory concentration (IC50) on 5-HT7 was more than 10000 nM; in [1] (setting [2]) it was 41.5 nM; in assay [1] (setting [3]), 21.5 nM; on hD3, 8200 nM; at hD4.2 receptor, 9110 nM; on 5-HT1a, 8550 nM. The IC50 at 5-HT2c came to 9810 nM; at 5-HT2a, 7550 nM; at D1, 8410 nM; at hD2L, 9050 nM.

`CN1CCN(c2cc(Cl)cc3c2C(=O)[C@@](C)(c2ccc(N)cc2)C(=O)N3Cc2ccccc2)CC1` (stereo in doubt) [Example 4, 3-(4-Amino-phenyl)-1-benzyl-7-chloro-3-methyl-5-(4-methyl-piperazin-1-yl)-1H-quinoline-2,4-dione]: the half-maximal inhibitory concentration (IC50) at 5-HT7 stood at 5050 nM; in assay [1] (setting [2]), 7.4 nM; in assay [1] (setting [3]), 15 nM; at hD3, 8110 nM; on hD4.2 receptor, 8190 nM; at 5-HT1a it was 5800 nM. Further, the IC50 was found to be 5780 nM on 5-HT2c, 7010 nM on 5-HT2a, 7090 nM at D1 and 6550 nM on hD2L.

As for `CC1(c2ccc(O)cc2)C(=O)c2c(N3CCNCC3)cc(Cl)cc2N(Cc2cccc(Br)c2)C1=O` (stereo not drawn) [Example 34, 1-(3-Bromo-benzyl)-7-chloro-3-(4-hydroxy-phenyl)-3-methyl-5-piperazin-1-yl-1H-quinoline-2,4-dione], the IC50 at 5-HT7 was found to be 9070 nM; in [1] (setting [2]), 3.6 nM; in assay [1] (setting [3]), 16.8 nM; at hD3 it was 9000 nM; at hD4.2 receptor, 9350 nM; at 5-HT1a it was 7550 nM. Further, the IC50 amounted to 7030 nM on 5-HT2c, 6960 nM on 5-HT2a, 9160 nM at D1 and 8050 nM on hD2L.

Consider `CC1(c2ccc(O)cc2)C(=O)c2c(N3CCNCC3)cc(Cl)cc2N(Cc2cccc(N)c2)C1=O` (stereo not drawn) [Example 26, 1-(3-Amino-benzyl)-7-chloro-3-(4-hydroxy-phenyl)-3-methyl-5-piperazin-1yl-1H-quinoline-2,4-dione], for which the IC50 on 5-HT7 was 5630 nM; in [1] (setting [2]), 8.7 nM; in [1] (setting [3]) it was 19 nM; at hD3, 9120 nM; at hD4.2 receptor it was 9410 nM; at 5-HT1a, 5900 nM. The IC50 on 5-HT2c stood at 7330 nM; on 5-HT2a, 5750 nM; at D1, 6950 nM; on hD2L, 8410 nM.

In the case of `CC1(c2ccc(O)cc2)C(=O)c2c(N3CCNCC3)cc(Cl)cc2N(Cc2ccccc2O)C1=O` (stereo not drawn) [Example 30, 7-Chloro-1-(2-hydroxy-benzyl)-3-(4-hydroxy-phenyl)-3-methyl-5-piperazin-1-yl-1H-quinoline-2,4-dione], the IC50 is 7340 nM on 5-HT7; 15.9 nM in assay [1] (setting [2]); 18.1 nM in assay [1] (setting [3]); 9780 nM at hD3; 8760 nM on hD4.2 receptor; 7240 nM on 5-HT1a. Besides, the IC50 worked out at 9450 nM at 5-HT2c, 8400 nM on 5-HT2a, 8000 nM at D1 and 7650 nM at hD2L.

For the compound `CC1(c2ccc(N)cc2)C(=O)c2c(N3CCNCC3)cc(Cl)cc2N(Cc2ccccc2)C1=O` (stereo not drawn) [Example 16, 3-(4-Amino-phenyl)-1-benzyl-7-chloro-3-methyl-5-piperazin-1-yl-1H-quinolin-2,4-dione], the IC50 was found to be 9350 nM on 5-HT7; 3.2 nM in [1] (setting [2]); 17.6 nM in [1] (setting [3]); 9070 nM on hD3; 8910 nM at hD4.2 receptor; 6020 nM at 5-HT1a. The IC50 on 5-HT2c is 9880 nM; at 5-HT2a, 8080 nM; at D1, 9010 nM; on hD2L, 6740 nM.

`CCNc1ccc(C2(C)C(=O)c3c(N4CCNCC4)cc(Cl)cc3N(Cc3ccccc3)C2=O)cc1` (stereo not drawn) [Example 18, 1-Benzyl-7-chloro-3-(4-ethylamino-phenyl)-3-methyl-5-piperazin-1-yl-1H-quinoline-2,4-dione]: the IC50 was 6010 nM on 5-HT7; 14.6 nM in assay [1] (setting [2]); 15.5 nM in assay [1] (setting [3]); 8900 nM on hD3; 8990 nM at hD4.2 receptor; 8050 nM at 5-HT1a. For the same compound, the IC50 at 5-HT2c is 8450 nM; on 5-HT2a, 7010 nM; at D1 it was more than 10000 nM; on hD2L, more than 1000 nM.

As to `CC1(c2ccc(O)cc2)C(=O)c2c(N3CCNCC3)cc(Cl)cc2N(Cc2cccnc2)C1=O` (stereo not drawn) [Example 38, 7-Chloro-3-(4-hydroxy-phenyl)-3-methyl-5-piperazin-1-yl-1-pyridin-3-ylmethyl-1H-quinoline-2,4-dione], the IC50 on 5-HT7 is 6410 nM; in assay [1] (setting [2]), 30.6 nM; in [1] (setting [3]), 20.4 nM; at hD3 it was 9310 nM; on hD4.2 receptor, 9240 nM; at 5-HT1a, 8450 nM. The IC50 on 5-HT2c was 9140 nM; at 5-HT2a, 8400 nM; on D1 it was 9410 nM; at hD2L it was 7690 nM.

(Values after patent US20080275058A1, “N-Substituted-1H-Quinoline-2,4-Diones, Preparation Method Thereof, And Pharmaceutical Composition Containing The Same” (KOREA RESEARCH INSTITUTE OF CHEMICAL TECHNOLOGY, priority 2005, published 2008).)
